Measured values taken from patent publication US11053225B2, “Pyrimidine derivative compound, optical isomer thereof, or pharmaceutically acceptable salt thereof, and composition for preventing or treating Tyro 3 related disease comprising same as active ingredient” (KOREA RESEARCH INSTITUTE OF CHEMICAL TECHNOLOGY, priority 2017, dated 2021).

The compounds below were run against Axl (Homo sapiens (Human), UniProt P30530) (assay: Axl kinase inhibition assay (Cisbio method, Eu-labeled antibody to phosphorylated peptide)). Conditions: read-out: IC50 (μM) Axl; 1 hour reaction with substrate peptide and ATP.
Sequence of Axl (P30530 26-894): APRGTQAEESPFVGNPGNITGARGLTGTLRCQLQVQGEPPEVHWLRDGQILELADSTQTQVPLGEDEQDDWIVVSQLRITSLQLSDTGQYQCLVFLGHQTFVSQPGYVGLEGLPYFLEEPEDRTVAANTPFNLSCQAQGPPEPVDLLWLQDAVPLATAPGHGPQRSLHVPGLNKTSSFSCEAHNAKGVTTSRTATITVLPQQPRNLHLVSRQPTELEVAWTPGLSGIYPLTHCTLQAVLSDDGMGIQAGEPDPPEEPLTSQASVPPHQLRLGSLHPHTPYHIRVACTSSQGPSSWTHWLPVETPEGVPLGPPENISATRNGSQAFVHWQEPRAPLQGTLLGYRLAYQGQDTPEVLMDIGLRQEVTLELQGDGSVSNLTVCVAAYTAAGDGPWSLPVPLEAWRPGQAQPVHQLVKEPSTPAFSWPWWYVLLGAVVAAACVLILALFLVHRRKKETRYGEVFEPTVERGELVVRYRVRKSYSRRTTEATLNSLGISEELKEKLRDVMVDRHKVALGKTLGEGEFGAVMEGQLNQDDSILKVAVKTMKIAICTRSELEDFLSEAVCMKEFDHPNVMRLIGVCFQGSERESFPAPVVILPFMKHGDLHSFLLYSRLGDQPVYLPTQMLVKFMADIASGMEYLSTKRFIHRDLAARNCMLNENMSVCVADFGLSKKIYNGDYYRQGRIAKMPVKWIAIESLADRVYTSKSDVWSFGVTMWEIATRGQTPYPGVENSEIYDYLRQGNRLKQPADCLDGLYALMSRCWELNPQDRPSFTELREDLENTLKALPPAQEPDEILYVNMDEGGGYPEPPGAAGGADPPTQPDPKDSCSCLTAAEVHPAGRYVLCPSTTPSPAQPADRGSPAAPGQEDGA
Experimental: For evaluation of inhibitory activities of the compounds according to the present invention on Tyro 3, Axl, and Mer, the following test was carried out.
The specific test method followed the method provided by Cisbio. The compounds of the examples were prepared at various concentrations, followed by addition of Tyro 3, Axl, or Mer and substrate peptides, and then ATP was added to initiate a reaction. After 1 hour, the reaction was stopped by addition of a solution containing EDTA. Thereafter, the amount of phosphorylated peptides was measured. Here, the phosphorylated peptides were treated with an europium (Eu)-labeled antibody recognizing phosphorylated peptides, and then after 1 hour, excited by irradiation of the light of a wavelength of 320 or 340 nm using an Envision Reader.

IC50, > 10 µM:
O=C(N1CCc2ccc(Nc3nc(Nc4cc(C(F)(F)F)cc(C(F)(F)F)c4)ncc3-c3cnn(CCO)c3)cc2C1)C(F)(F)F [Compound 124, 1-(7-(2-(3,5-bis(trifluoromethyl)phenylamino)-5-(1-(2-hydroxyethyl)-1H-pyrazol-4-yl)pyrimidin-4-ylamino)-3,4-dihydroisoquinolin-2(1H)-yl)-2,2,2-trifluoroethanone]
Cn1cc(-c2cnc(NCCc3ccncc3)nc2NC2CCCCC2)cn1 [Compound 17]
Cn1cc(-c2cnc(Nc3ccc4c(c3)CN(C(=O)C(F)(F)F)CC4)nc2NC2CCN(C(=O)C(F)(F)F)CC2)cn1 [Compound 70, 1-(4-(5-(1-methyl-1H-pyrazol-4-yl)-2-(2-(2,2,2-trifluoroacetyl)-1,2,3,4-tetrahydroisoquinolin-7-ylamino)pyrimidin-4-ylamino)piperidin-1-yl)-2,2,2-trifluoroethanone]
Cc1ccc(Nc2ncc(-c3ccc(C)cc3)c(NC3CCCCC3)n2)cc1 [Compound 2, N4-cyclohexyl-N2,5-di-(p-tolyl)pyrimidine-2,4-diamine]
Cn1cc(-c2cnc(Nc3ccccc3)nc2NC2CCCCC2)cn1 [Compound 6, N4-cyclohexyl-5-(1-methyl-1H-pyrazol-4-yl)-N2-phenylpyrimidine-2,4-diamine]
COc1ccc(Nc2ncc(-c3cnn(C)c3)c(NC3CCCCC3)n2)cc1Cl [Compound 9, N2-(3-chloro-4-methoxyphenyl)-N4-cyclohexyl-5-(1-methyl-1H-pyrazol-4-yl)pyrimidine-2,4-diamine]
Clc1cc(Cl)cc(Nc2ncc(-c3ccoc3)c(NC3CCCCC3)n2)c1 [Compound 15, N4-cyclohexyl-N2-(3,5-dichlorophenyl)-5-(furan-3-yl)pyrimidine-2,4-diamine]
Cc1cc(Nc2ncc(-c3cnn(C)c3)c(NC3CCN(C(=O)C(F)(F)F)CC3)n2)ccc1Cl [Compound 43, 1-(4-(2-(3-methyl-4-chlorophenylamino)-5-(1-methyl-1H-pyrazol-4-yl)pyrimidin-4-ylamino)piperidin-1-yl)-2,2,2-trifluoroethanone]
COc1ccc(Nc2ncc(-c3cnn(C)c3)c(NC3CCNCC3)n2)cc1 [Compound 47, N2-(4-methoxyphenyl)-5-(1-methyl-1H-pyrazol-4-yl)-N4-(piperidin-4-yl)pyrimidine-2,4-diamine]
Cn1cc(-c2cnc(Nc3ccc4c(c3)CN(C(=O)C(F)(F)F)CC4)nc2N[C@H]2CC[C@@H](NC(=O)C(F)(F)F)CC2)cn1 [Compound 86, N-((1s,4s)-4-(5-(1-methyl-1H-pyrazol-4-yl)-2-(2-(2,2,2-trifluoroacetyl)-1,2,3,4-tetrahydroisoquinolin-7-ylamino)pyrimidin-4-ylamino)cyclohexyl)-2,2,2-trifluoroacetamide]
COc1ccccc1Nc1ncc(-c2ccc(OC)c(OC)c2)c(NC2CCNCC2)n1 [Compound 68, 5-(3,4-dimethoxyphenyl)-N2-(2-methoxyphenyl)-N4-(piperidin-4-yl)pyrimidine-2,4-diamine]
Cn1cc(-c2cnc(Nc3cc(C(F)(F)F)cc(C(F)(F)F)c3)nc2Nc2ccc3c(c2)CNCC3)cn1 [Compound 136, N2-(3,5-bis(trifluoromethyl)phenyl)-5-(1-methyl-1H-pyrazol-4-yl)-N4-(1,2,3,4-tetrahydroisoquinolin-7-yl)pyrimidine-2,4-diamine]
O=C(NC1CCC(Nc2nc(Nc3cc(Cl)cc(Cl)c3)ncc2-c2cnn(C3CCNCC3)c2)CC1)C(F)(F)F (centres unmarked) [Compound 122, 1-(4-(2-(3,5-dichlorophenylamino)-5-(1-(piperidin-4-yl)-1H-pyrazol-4-yl)pyrimidin-4-ylamino)cyclohexyl)-2,2,2-trifluoroacetamide]
Cc1ccc(Nc2ncc(-c3ccoc3)c(NC3CCN(C(=O)C(F)(F)F)CC3)n2)cc1 [Compound 49, 1-(4-(2-(p-toluidino)-5-(furan-3-yl)pyrimidin-4-ylamino)piperidin-1-yl)-2,2,2-trifluoroethanone]
